Test results as given in patent US5994366A, “Tetrahydroimidazo[2,1-A]isoquinoline derivatives” (Akzo Nobel NV, priority 1997, dated 1999).
Counter-ions that a name gives are not always drawn.

Experiments:
Format in all cases: biochemical
Conditions in all cases: in vitro
[1] = biological target: dopamine reuptake; test: dopamine (DUP) reuptake blockade
Description: (§1) Measurement of dopamine (DUP), serotonin (SUP) and noradrenaline NUP) reuptake blockade was carried out using the methods described in Neuropharmacology Vol. 27, No. 3, pp. 251-260, 1988 and results are presented in Table 1 below.

[2] = biological target: serotonin reuptake; test: serotonin (SUP) reuptake blockade
Description: as §1

[3] = biological target: noradrenaline reuptake; test: noradrenaline (NUP) reuptake blockade
Description: as §1

SMILES	DUP (pKi) [1]	SUP (pKi) [2]	NUP (pKi) [3]
Fc1ccc(C2CN3CCN=C3c3ccccc32)cc1 (single isomer, unassigned; (+)) [Example 7, (+)-6-(4-Fluorophenyl)-2,3,5,6-tetrahydroimidazo[2,1-a]isoquinoline (E)-2-butenedioate (1:1) salt]	6.45	6.25	7.75
Clc1ccc(C2CN3CCN=C3c3ccccc32)cc1 (single isomer, unassigned; (+)) [Example 4, (+)-6-(4-Chlorophenyl)-2,3,5,6-tetrahydroimidazo[2,1-a]isoquinoline (E)-2-butenedioate (1:1) salt]	7.2	7.0	8.15
Fc1ccc(C2CN3CCN=C3c3ccccc32)cc1 (single isomer, unassigned; (-)) [Example 6, (-)-6-(4-fluorophenyl)-2,3,5,6-tetrahydroimidazo[2,1-a]isoquinoline (E)-2-butenedioate (1:1) salt]	6.6	7.9	7.5
Cl.Clc1ccc(C2CN3CCN=C3c3ccccc32)cc1 (racemic) [Example 2a, (rac)6-(4-chlorophenyl)-2,3,5,6-tetrahydroimidazo[2,1-a]isoquinoline hydrochloride]	7.15	7.4	7.9
Fc1ccc(C2CN3CCN=C3c3ccccc32)cc1 (racemic) [Example 2b, (rac)-6-(4-Fluorophenyl)-2,3,5,6-tetrahydroimidazo[2,1-a]isoquinoline]	6.5	7.5	7.65
Clc1ccc(C2CN3CCN=C3c3ccccc32)cc1 (single isomer, unassigned; (-)) [Example 3, (-)-6-(4-chlorophenyl)-2,3,5,6-tetrahydroimidazo[2,1-a]isoquinoline (E)-2-butenedioate (1:1) salt]	7.15	7.3	8.1
Cc1ccc(C2CN3CCN=C3c3ccccc32)cc1 (racemic) [Example 2c, (rac)-2,3,5,6-Tetrahydro-6-(4-methylphenyl)imidazo[2,1-a]isoguinoline (Z)-2-butenedioate (1:1) salt]	7.05	6.9	7.75
